Test results as given in patent US8518931B2, “Compounds and compositions as kinase inhibitors” (IRM LLC, priority 2008, dated 2013).

Target: T1, NPM-ALK (Homo sapiens, UniProt Q9UM73)
T1 construct: nucleophosmin (NPM, NPM1; human P06748) fusion partner; expressed in transfected cells; host or cells: murine BaF3 cells (DSMZ), transfected with pCIneo (Promega) coding for NPM-ALK and selected with G418; the other entry of the earlier key: Npm1 (Q61937, Nucleophosmin)
Experiment: NPM-ALK BaF3 assay (growth inhibition of BaF3-NPM-ALK cells)
Format: cell-based
Conditions: human NPM-ALK overexpressing murine BaF3 cells
Text: The expression of NPM-ALK may be achieved by transfecting the BaF3 cell line with an expression vector pClneo™ (Promega Corp., Madison Wis., USA) coding for NPM-ALK and subsequent selection of G418 resistant cells. Non-transfected BaF3 cells depend on IL-3 for cell survival. In contrast, NPM-ALK expressing BaF3 cells (named BaF3-NPM-ALK hereinafter) can proliferate in the absence of IL-3 because they obtain proliferative signal through NPM-ALK kinase. Putative inhibitors of the NPM-ALK kinase therefore abolish the growth signal and may result in antiproliferative activity. The antiproliferative activity of putative inhibitors of the NPM-ALK kinase can however be overcome by addition of IL-3, which provides growth signals through an NPM-ALK independent mechanism. An analogous cell system using FLT3 kinase has also been described (see, E Weisberg et al. Cancer Cell; 1, 433-443 (2002)).
The inhibitory activity of the compounds of the invention may be determined as follows. In general, BaF3-NPM-ALK cells (15,000/microtitre plate well) are transferred to 96-well microtitre plates. Test compounds dissolved in dimethyl sulfoxide (DMSO) are added in a series of concentrations (dilution series) in such a manner that the final concentration of DMSO is not greater than 1% (v/v). After the addition, the plates are incubated for two days during which the control cultures without test compound are able to undergo two cell-division cycles. The growth of the BaF3-NPM-ALK cells is measured by means of YOPRO™ staining [T Idziorek et al. J. Immunol. Methods; 185: 249-258 (1995)]: 25 μl of lysis buffer comprising 20 mM sodium citrate, pH 4.0, 26.8 mM sodium chloride, 0.4% NP40, 20 mM EDTA and […] to each well. Cell lysis is completed within 60 min at room temperature and total amount of YOPRO™ bound to DNA is determined by measurement using the Cytofluor II 96-well reader (PerSeptive Biosystems) with the following settings: Excitation (nm) 485/20 and Emission (nm) 530/25.
IC50 values may be determined by a computer-aided system using the formula: IC50=[(ABStest−ABSstart)/(ABScontrol−ABSstart)]×100·(ABS=absorption)
In general, compounds of the invention have IC50 values from 1 nM to 10 μM. In some examples, compounds of the invention have IC50 values from 0.01 μM to 5 μM. In other examples, compounds of the invention have IC50 values from 0.01 μM to 1 μM, or more particularly from 1 nM to 1 μM.
Table 1 describes representative compounds of the invention, prepared following the procedures described above. IC50 values are as measured in an NPM-ALK BaF3 assay.

T1 sequence (Q9UM73 with tags, fused parts or gaps): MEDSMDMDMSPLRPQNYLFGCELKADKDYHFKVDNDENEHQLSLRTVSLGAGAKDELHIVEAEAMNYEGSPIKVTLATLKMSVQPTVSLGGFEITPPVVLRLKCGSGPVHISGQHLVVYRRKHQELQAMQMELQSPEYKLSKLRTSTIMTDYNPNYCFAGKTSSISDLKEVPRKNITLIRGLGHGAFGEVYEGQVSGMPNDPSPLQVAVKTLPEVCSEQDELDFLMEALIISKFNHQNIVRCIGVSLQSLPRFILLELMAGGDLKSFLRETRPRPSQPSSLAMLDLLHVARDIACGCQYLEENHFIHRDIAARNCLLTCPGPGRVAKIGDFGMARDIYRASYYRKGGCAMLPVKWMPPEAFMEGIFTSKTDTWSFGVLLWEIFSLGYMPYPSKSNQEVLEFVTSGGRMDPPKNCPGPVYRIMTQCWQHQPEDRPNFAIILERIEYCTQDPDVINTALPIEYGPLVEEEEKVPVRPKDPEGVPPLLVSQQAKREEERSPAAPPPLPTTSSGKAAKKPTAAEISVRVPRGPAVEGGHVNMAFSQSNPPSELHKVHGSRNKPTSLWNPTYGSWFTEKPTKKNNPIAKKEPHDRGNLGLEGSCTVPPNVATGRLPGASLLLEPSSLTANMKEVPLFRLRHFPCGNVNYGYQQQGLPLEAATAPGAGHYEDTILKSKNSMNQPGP

Row | Compound | IC50
1 | CC(C)S(=O)(=O)c1ccccc1Nc1nc(Nc2ccc3c(c2)CCN(CCS(C)(=O)=O)C3)nc2ccnn12 [Ex 40] | 0.136 µM
2 | Cc1cc(C2CCN(C(=O)CCN(C)C)CC2)ccc1Nc1nc(Nc2ccccc2S(=O)(=O)C(C)C)n2nccc2n1 [Ex 49] | 0.129 µM
3 | COc1cc(C2CCN(C(=O)[C@H](C)NCCO)CC2)c(C)cc1Nc1nc(Nc2ccccc2S(=O)(=O)C(C)C)n2nccc2n1 [Ex 65] | 0.037 µM
4 | COc1cc(C2CCN(C(=O)C3(N)CC3)CC2)c(C)cc1Nc1nc(Nc2ccccc2S(=O)(=O)C(C)C)n2nccc2n1 [Ex 18] | 0.039 µM
5 | COc1cc(C2CCN(C(=O)CCCN(C)C)CC2)c(C)cc1Nc1nc(Nc2ccccc2S(=O)(=O)C(C)C)n2nccc2n1 [Ex 72] | 0.058 µM
6 | COc1cc(C2CCN(C(=O)CN3CCOCC3)CC2)c(C)cc1Nc1nc(Nc2ccccc2S(=O)(=O)C(C)C)n2nccc2n1 [Ex 88] | 0.047 µM
7 | COc1cc(C2CCOCC2)c(C)cc1Nc1nc(Nc2ccccc2S(=O)(=O)C(C)C)n2nccc2n1 [Ex 10] | 0.138 µM
8 | COc1cc(C2CCN(C(=O)CN3CC(O)C3)CC2)c(C)cc1Nc1nc(Nc2ccccc2S(=O)(=O)C(C)C)n2nccc2n1 [Ex 59] | 0.193 µM
9 | Cc1cc(Nc2nc(Nc3ccccc3S(=O)(=O)C(C)C)n3nccc3n2)c(OC(C)C)cc1C1CCN(C)CC1 [Ex 1, N2-(2-isopropoxy-5-methyl-4-(1-methylpiperidin-4-yl)phenyl)-N4-(2-(isopropylsulfonyl)phenyl)pyrazolo[1,5-a][1,3,5]triazine-2,4-diamine] | 0.115 µM
10 | COc1cc(C2CCN(C(=O)C3CCCCN3)CC2)c(C)cc1Nc1nc(Nc2ccccc2S(=O)(=O)C(C)C)n2nccc2n1 (centres unmarked) [Ex 29] | 0.054 µM
11 | COc1cc(C2CCN(C(=O)[C@H](C)N3CC[C@@H](O)C3)CC2)c(C)cc1Nc1nc(Nc2ccccc2S(=O)(=O)C(C)C)n2nccc2n1 [Ex 79] | 0.038 µM
12 | COc1cc(C2CCN(C(=O)CN(C)C)CC2)c(C)cc1Nc1nc(Nc2ccccc2S(=O)(=O)C(C)C)n2nccc2n1 [Ex 2] | 0.011 µM
13 | COc1cc(C2CCN(C(=O)[C@H](N)CO)CC2)c(C)cc1Nc1nc(Nc2ccccc2S(=O)(=O)C(C)C)n2nccc2n1 [Ex 86] | 0.034 µM
14 | COc1cc(C2CCN(CC3CC3)CC2)c(C)cc1Nc1nc(Nc2ccccc2S(=O)(=O)C(C)C)n2nccc2n1 [Ex 8] | 0.043 µM
15 | COc1cc(C2CCN(C(=O)[C@H](C)N3CCC3)CC2)c(C)cc1Nc1nc(Nc2ccccc2S(=O)(=O)C(C)C)n2nccc2n1 [Ex 61] | 0.034 µM
16 | COc1cc(C2CCN(C(=O)CN3CC[C@H](F)C3)CC2)c(C)cc1Nc1nc(Nc2ccccc2S(=O)(=O)C(C)C)n2nccc2n1 [Ex 76] | 0.075 µM
17 | COc1cc(C2CCN(C(=O)[C@@H]3C[C@H](F)CN3)CC2)c(C)cc1Nc1nc(Nc2ccccc2S(=O)(=O)C(C)C)n2nccc2n1 [Ex 54] | 0.042 µM
18 | COc1cc(C2CCN(C(=O)[C@H](C)N)CC2)c(C)cc1Nc1nc(Nc2ccccc2S(=O)(=O)C(C)C)n2nccc2n1 [Ex 67] | 0.04 µM
19 | Cc1cc(CN2CCC(c3cc(OC(C)C)c(Nc4nc(Nc5ccccc5S(=O)(=O)C(C)C)n5nccc5n4)cc3C)CC2)[nH]n1 [Ex 5] | 0.14 µM
20 | COc1cc(C2CCN(C(=O)[C@@H]3C[C@@H](O)CN3C)CC2)c(C)cc1Nc1nc(Nc2ccccc2S(=O)(=O)C(C)C)n2nccc2n1 [Ex 50] | 0.052 µM
21 | COc1cc(C2CCN(C(=O)[C@H](C)N3CC[C@H](O)C3)CC2)c(C)cc1Nc1nc(Nc2ccccc2S(=O)(=O)C(C)C)n2nccc2n1 [Ex 78] | 0.036 µM
22 | COc1cc(C2CCN(C(=O)CN3CC[C@@H](F)C3)CC2)c(C)cc1Nc1nc(Nc2ccccc2S(=O)(=O)C(C)C)n2nccc2n1 [Ex 62] | 0.058 µM
23 | COc1cc(C2CCN(C(=O)CNC[C@@H](O)CO)CC2)c(C)cc1Nc1nc(Nc2ccccc2S(=O)(=O)C(C)C)n2nccc2n1 [Ex 43] | 0.15 µM
24 | COc1cc(C2CCN(C(=O)CO)CC2)c(C)cc1Nc1nc(Nc2ccccc2S(=O)(=O)C(C)C)n2nccc2n1 [Ex 73] | 0.04 µM
25 | COc1cc(C2CCN(C(=O)CN3C[C@@H](O)[C@H](O)C3)CC2)c(C)cc1Nc1nc(Nc2ccccc2S(=O)(=O)C(C)C)n2nccc2n1 [Ex 21] | 0.286 µM
26 | CC(C)S(=O)(=O)c1ccccc1Nc1nc(Nc2ccc(C3CCN(CCC(N)=O)CC3)cc2)nc2ccnn12 [Ex 92] | 0.13 µM
27 | COc1cc(C2CCN(C(=O)[C@H]3COCCN3)CC2)c(C)cc1Nc1nc(Nc2ccccc2S(=O)(=O)C(C)C)n2nccc2n1 [Ex 70, (R)-(4-(4-(4-(2-(isopropylsulfonyl)phenylamino)pyrazolo[1,5-a][1,3,5]triazin-2-ylamino)-5-methoxy-2-methylphenyl)piperidin-1-yl)(morpholin-3-yl)methanone] | 0.035 µM
28 | COc1cc(C2CCN(C(=O)[C@@H]3C[C@H](O)CN3)CC2)c(C)cc1Nc1nc(Nc2ccccc2S(=O)(=O)C(C)C)n2nccc2n1 [Ex 55] | 0.063 µM
29 | COc1cc(C2CCN(C(=O)[C@H]3C[C@@H](O)CN3)CC2)c(C)cc1Nc1nc(Nc2ccccc2S(=O)(=O)C(C)C)n2nccc2n1 [Ex 56] | 0.079 µM
30 | Cc1cc(Nc2nc(Nc3ccccc3S(=O)(=O)C(C)C)n3nccc3n2)ccc1C1CCN(CCS(C)(=O)=O)CC1 [Ex 47] | 0.046 µM

More lines, in order of falling IC50, values ahead:

Row | IC50 | Compound
31 | 0.033 µM | COc1cc(C2CCN(C(=O)CCCN3CCCC3)CC2)c(C)cc1Nc1nc(Nc2ccccc2S(=O)(=O)C(C)C)n2nccc2n1 [Ex 100]
32 | 0.033 µM | COc1cc(C2CCN(C(=O)[C@H](C)N3CCCC3)CC2)c(C)cc1Nc1nc(Nc2ccccc2S(=O)(=O)C(C)C)n2nccc2n1 [Ex 80]
33 | 0.032 µM | COc1cc(C2CCN(C(=O)CNC(C)C)CC2)c(C)cc1Nc1nc(Nc2ccccc2S(=O)(=O)C(C)C)n2nccc2n1 [Ex 57]
34 | 0.031 µM | COc1cc(C2CCN(C(=O)CN3CC[C@@H](O)C3)CC2)c(C)cc1Nc1nc(Nc2ccccc2S(=O)(=O)C(C)C)n2nccc2n1 [Ex 60]
35 | 0.029 µM | COc1cc(C2CCN(C(=O)[C@@H]3COC(C)(C)CN3)CC2)c(C)cc1Nc1nc(Nc2ccccc2S(=O)(=O)C(C)C)n2nccc2n1 [Ex 87]
36 | 0.028 µM | CNC(=O)CN1CCC(c2cc(OC)c(Nc3nc(Nc4ccccc4S(=O)(=O)C(C)C)n4nccc4n3)cc2C)CC1 [Ex 12]
37 | 0.028 µM | COc1cc(C2CCN(C(=O)[C@H](C)NC(C)C)CC2)c(C)cc1Nc1nc(Nc2ccccc2S(=O)(=O)C(C)C)n2nccc2n1 [Ex 64]
38 | 0.025 µM | COc1cc(C2CCN(C(=O)C3CCCN3C)CC2)c(C)cc1Nc1nc(Nc2ccccc2S(=O)(=O)C(C)C)n2nccc2n1 (centres unmarked) [Ex 34]
39 | 0.025 µM | COc1cc(C2CCN(C3CCSCC3)CC2)c(C)cc1Nc1nc(Nc2ccccc2S(=O)(=O)C(C)C)n2nccc2n1 [Ex 84]
40 | 0.023 µM | COc1cc(C2CCN(C3CCOCC3)CC2)c(C)cc1Nc1nc(Nc2ccccc2S(=O)(=O)C(C)C)n2nccc2n1 [Ex 83]
41 | 0.022 µM | CNCC(=O)N1CCC(c2cc(OC)c(Nc3nc(Nc4ccccc4S(=O)(=O)C(C)C)n4nccc4n3)cc2C)CC1 [Ex 17]
42 | 0.022 µM | COc1cc(C2CCN(C(=O)[C@@H]3COCCN3)CC2)c(C)cc1Nc1nc(Nc2ccccc2S(=O)(=O)C(C)C)n2nccc2n1 [Ex 71]
43 | 0.021 µM | CN[C@@H](C)C(=O)N1CCC(c2cc(OC)c(Nc3nc(Nc4ccccc4S(=O)(=O)C(C)C)n4nccc4n3)cc2C)CC1 [Ex 24]
44 | 0.018 µM | CN[C@H](C)C(=O)N1CCC(c2cc(OC)c(Nc3nc(Nc4ccccc4S(=O)(=O)C(C)C)n4nccc4n3)cc2C)CC1 [Ex 44]
45 | 0.017 µM | COc1cc(C2CCN(C(=O)CN)CC2)c(C)cc1Nc1nc(Nc2ccccc2S(=O)(=O)C(C)C)n2nccc2n1 [Ex 68]
46 | 0.016 µM | CCCNCC(=O)N1CCC(c2cc(OC)c(Nc3nc(Nc4ccccc4S(=O)(=O)C(C)C)n4nccc4n3)cc2C)CC1 [Ex 103]
47 | 0.016 µM | COc1cc(C2CCN(CC(N)=O)CC2)c(C)cc1Nc1nc(Nc2ccccc2S(=O)(=O)C(C)C)n2nccc2n1 [Ex 23]
48 | 0.016 µM | COc1cc(C2CCN(C(=O)C(C)(CO)CO)CC2)c(C)cc1Nc1nc(Nc2ccccc2S(=O)(=O)C(C)C)n2nccc2n1 [Ex 106]
49 | 0.015 µM | COc1cc(C2CCN(CCC(=O)N3CCC3)CC2)c(C)cc1Nc1nc(Nc2ccccc2S(=O)(=O)C(C)C)n2nccc2n1 [Ex 89]
50 | 0.013 µM | COc1cc(C2CCN(C(=O)[C@@H](C)N(C)CCO)CC2)c(C)cc1Nc1nc(Nc2ccccc2S(=O)(=O)C(C)C)n2nccc2n1 [Ex 98]
